Experimental data reported in PMC9261792 (Journal of Food and Drug Analysis, 2021).

Target: T1, hSGLT1 (Homo sapiens, UniProt P13866)
T1 sequence (P13866 1-664): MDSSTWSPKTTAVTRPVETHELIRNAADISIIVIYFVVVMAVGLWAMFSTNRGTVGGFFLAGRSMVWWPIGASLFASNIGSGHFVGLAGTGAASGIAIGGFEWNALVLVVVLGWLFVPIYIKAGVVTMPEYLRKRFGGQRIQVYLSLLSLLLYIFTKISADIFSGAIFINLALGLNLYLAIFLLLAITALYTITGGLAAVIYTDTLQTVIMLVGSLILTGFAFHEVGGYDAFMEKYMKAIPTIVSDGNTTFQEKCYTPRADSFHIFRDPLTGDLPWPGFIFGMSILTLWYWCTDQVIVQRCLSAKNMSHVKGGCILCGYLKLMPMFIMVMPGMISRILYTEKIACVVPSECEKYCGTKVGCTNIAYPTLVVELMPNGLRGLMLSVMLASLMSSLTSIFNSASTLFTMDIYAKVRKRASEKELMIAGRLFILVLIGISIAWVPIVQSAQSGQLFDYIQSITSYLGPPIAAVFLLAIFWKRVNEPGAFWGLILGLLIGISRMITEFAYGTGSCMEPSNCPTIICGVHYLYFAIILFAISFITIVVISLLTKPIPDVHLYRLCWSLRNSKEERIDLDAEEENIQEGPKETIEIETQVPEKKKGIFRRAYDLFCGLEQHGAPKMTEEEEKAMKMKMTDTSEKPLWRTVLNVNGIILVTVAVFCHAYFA
Assay: 1-NBDG uptake inhibition in COS-7 cells expressing hSGLT1, single dose […]
Type: cell-based
Details: COS-7, read-out: % Uptake via / hSGLT1

Compound: O=C(/C=C/c1ccc(O)cc1)OC[C@H]1O[C@@H](Oc2c(-c3ccc(O)cc3)oc3cc(O)cc(O)c3c2=O)[C@H](O)[C@@H](O)[C@@H]1O [compound 15, Tiliroside]
- activity at 50 µM: 33.1 ± 0.85%
